Test results published in PMC4600319 (Malaria Journal, 2015).
Several values for one entry are separate records, joined by “and”; a condition that tells them apart may be missing. Identical values can stand only once. Like-named read-outs stand apart in the source and are kept apart here. Blank lines part the entries; values can stand above or below the molecule they belong to.

Key:
[1] = Open-label, three-way, sequential, cross-over pharmacokinetic interaction study, plasma, non-compartmental analysis; format: in vivo, human (healthy Thai adults); conditions: for CL/F / Tmax / AUC(0-t) / half-life / AUC(0-inf) / Vd/F / Cmax / AUC0–12h: median (95 % CI); for Tmax / AUC(0-t) / half-life / AUC(0-inf) / Vd/F / Cmax / AUC0–12h: plasma; for half-life: read-out: t1/2z (converted); for Vd/F: read-out: Vz/F; for extrapolated AUC from the last blood sampling time to infinity (AUCt−∞) / inter-individual variability of plasma concentrations / inter-individual variability in AUC0−24h: in vivo; for t1/2z GMR (90 % CI): geometric mean ratio; for plasma concentration 1 h post-dose on Day 3: median
Description: This was an open-label, three-way, sequential, cross-over, pharmacokinetic study in healthy adult volunteers. […] Written informed consent for study participation was obtained from each subject before study. […] Consenting adults were screened for eligibility and a physical examination, electrocardiogram (ECG), and laboratory safety tests (haematology, biochemistry, urinalysis, and pregnancy status) were performed. Figure 1 summarizes the study design. The pharmacokinetic sampling was performed sequentially on three occasions. […] Ltd., China). Mefloquine doses were given as three tablets on Day 1 and two tablets on Day 2 (250 mg mefloquine per tablet, manufactured by Atlantic Pharmaceutical Ltd., China). There was a 2-months wash-out period between Period 1 and Period 2. Period 2: subjects received oral doses of LPV/r (400/100 mg), twice daily, for 14 days (27 doses). There was no washout between Period 2 and Period 3. […] Immediately after collection, all blood samples were centrifuged (1200×g, 10 min) and the plasma samples were stored at -80 °C until analysis. […] University. […] An Agilent 1260 LC system (Agilent Technologies, CA, USA) coupled with an API 5000 triple quadrupole mass spectrometer (Applied Biosystems/MDS SCIEX, Foster City, USA), with a TurboVTM ionization source (TIS) interface operated in the positive ion mode, was used for the multiple reaction monitoring LC-MS/MS analysis. […] Nitrogen gas was supplied from an AB-3G (Peak Scientific, Inchinnan, UK). […] Chromatographic separation was performed using an […] XDB C18 column (5 μm, 4.6 mm × 150 mm; Thermo Fisher Scientific, MA, USA) protected with an Eclipse XDB-C8 guard column (Thermo Electron Corporation, MA, USA). The gradient mobile phase consisted of a mixture of 10 mM ammonium acetate with 0.1 % glacial acetic acid and acetonitrile running at a flow rate of 0.7 mL/min. Total run time was 12 min. […] Measurement of plasma concentrations of mefloquine was performed using high performance liquid chromatography (HPLC) according to the method of Karbwang et al. with modifications. Chromatographic separation was performed on a Hypersil ODS column (5 μm, 4.6 mm × 250 mm; Thermo Fisher Scientific, MA, USA) protected with an Eclipse XDB-C8 guard column (Thermo Electron Corporation, MA, USA). […] The UV detector was set at the wavelength of 220 nm. […] This laboratory participates in the NIAID Clinical Pharmacology Quality Assurance Programme Proficiency Testing. Pharmacokinetic parameters were determined using a non-compartmental analysis using WinNonLin software (version 6.3, […], USA). […] The Cmax (maximum concentration); tmax (time of maximum concentration) were determined by direct inspection of the plasma concentration-time data. […] The extrapolated AUC from the last sampling time to infinity was estimated from Ct/elimination rate constant (lz). lz was calculated from at least five concentration-time points of elimination phase. Apparent oral clearance (CL/F) was calculated as dose/AUC0-∞. Volume of distribution (Vz/F) was calculated as CL/F/lz, and the terminal half-life (t1/2z) was calculated as 0.693/lz. […] Statistical analysis of the data was performed using SPSS version 16.0 (Gorichem, The Netherlands). Pharmacokinetic parameters are presented as median and 95 % confidence intervals (95 % CI). […] Comparison of the frequency of subjects with adverse events between the two groups was performed using a Chi-square test. Statistical significance level was set at a = 0.05 for all tests.

[2] = previous report, healthy Thai volunteers; cited from earlier work
[3] = 750 and 500 mg 24 h apart vs previous study in healthy Thai subjects, 750 and 500 mg 6 h apart (ref 47, 48)
[4] = both sexes, human, oral, 3-day artesunate-mefloquine with LPV/r 400/100 mg twice a day (Period 3), read-out: tmax
[5] = both sexes, human, oral, 3-day artesunate-mefloquine alone (Period 1)
[6] = both sexes, human, oral, 3-day artesunate-mefloquine with LPV/r (Period 3), read-out: Cmax
[7] = both sexes, human, oral, 3-day artesunate-mefloquine with LPV/r (Period 3)
[8] = both sexes, human, po, 3-day artesunate-mefloquine alone (Period 1), oral, read-out: Cmax
[9] = both sexes, human, 3-day artesunate-mefloquine alone (Period 1), oral, read-out: tmax
[10] = in the presence of LPV/r vs alone
[11] = LPV/r 400/100 mg twice daily alone (Period 2)
[12] = LPV/r with 3-day artesunate-mefloquine (Period 3)
[13] = both sexes, human, oral, LPV/r 400/100 mg twice daily alone (Period 2), read-out: Cmax
[14] = both sexes, human, oral, LPV/r 400/100 mg twice daily alone (Period 2)
[15] = both sexes, human, oral, LPV/r with 3-day artesunate-mefloquine (Period 3), read-out: AUC0–12h
[16] = both sexes, human, oral, LPV/r with 3-day artesunate-mefloquine (Period 3)
[17] = in the presence of artesunate-mefloquine vs LPV/r alone
[18] = with artesunate-mefloquine vs LPV/r alone
[19] = both sexes, human, oral, 3-day artesunate-mefloquine alone (Period 1), read-out: AUC0–24h
[20] = both sexes, human, oral, 3-day artesunate-mefloquine with LPV/r (Period 3), read-out: AUC0–24h
[21] = in the presence of steady-state LPV/r vs alone

Structure (SMILES): OC(c1cc(C(F)(F)F)nc2c(C(F)(F)F)cccc12)C1CCCCN1 (centres unmarked) [Mefloquine, mefloquine]
- CL/F ([1]; 3-day artesunate-mefloquine alone (Period 1)): 1.08 (0.78, 1.37) L/h
- CL/F ([1]; 3-day artesunate-mefloquine with LPV/r (Period 3)): 1.67 (1.03, 2.30) L/h
- lower CL/F relative to previous study [1, 3]: 33.4%
- smaller Vz/F relative to previous study [1, 3]: 40%
- Tmax [1, 4]: 33 h
- AUC(0-t) ([1]; both sexes, human, oral, 3-day artesunate-mefloquine alone (Period 1), read-out: AUC0–48h): 952 µg·h/mL
- half-life [1, 5]: 344 h
- AUC(0-inf) [1, 5]: 1160 µg·h/mL
- Vd/F [1, 5]: 9.24 L/kg
- AUC(0-t) ([1]; both sexes, human, oral, 3-day artesunate-mefloquine with LPV/r (Period 3), read-out: AUC0–48h): 678 µg·h/mL
- Cmax [1, 6]: 2340 ng/mL
- half-life [1, 7]: 336 h
- AUC(0-inf) [1, 7]: 751 µg·h/mL
- Vd/F [1, 7]: 12.8 L/kg
- Cmax [1, 8]: 2900 ng/mL
- Tmax [1, 9]: 33 h
- 90 % CI of the GMR of AUC0−168h vs bioequivalent range of 0.8-1.25 ([1]; combination vs alone): outside the acceptable bioequivalent range
- 90 % CI of the GMR of AUC0−∞ vs bioequivalent range of 0.8-1.25 ([1]; combination vs alone): outside the acceptable bioequivalent range
- 90 % CI of the GMR of Cmax vs bioequivalent range of 0.8-1.25 ([1]; combination vs alone): outside the acceptable bioequivalent range
- decrease in AUC0−48h [1, 10]: 28.7%
- decrease in AUC0−168h [1, 10]: 37.1%
- decrease in AUC0−∞ [1, 10]: 35.2%
- decrease in Cmax [1, 10]: 19.3%
- increase in CL/F [1, 10]: 54.6%
- increase in Vz/F [1, 10]: 37.9%
- reduction in Cmax and systemic exposure [1, 10]: 19–37%
- extrapolated AUC from the last blood sampling time to infinity (AUCt−∞) [1]: less than 10%
- inter-individual variability of plasma concentrations [1]: 34.2 to 96.9%
- t1/2z GMR (90 % CI) ([1]; with LPV/r vs alone): 1.14 (0.90, 1.45)

Structure (SMILES): C[C@H]1[C@@H](O)O[C@@H]2O[C@@]3(C)CC[C@H]4[C@H](C)CC[C@@H]1[C@@]24OO3 [Dihydroartemisinin, dihydroartemisinin]
- reduction in the AUC ([1]; LPV/r co-administration): 50%
- plasma concentration 1 h post-dose on Day 3 ([1]; artesunate given with LPV/r): 310 ng/mL
- plasma concentration 1 h post-dose on Day 3 ([1]; artesunate-mefloquine without LPV/r): 580 ng/mL
- Tmax [1, 4]: 2 h
- AUC(0-t) [1, 19]: 2.37 µg·h/mL
- half-life [1, 5]: 4.02 h
- AUC(0-inf) [1, 5]: 2.68 µg·h/mL
- AUC(0-t) [1, 20]: 0.99 µg·h/mL
- Cmax [1, 6]: 310 ng/mL
- half-life [1, 7]: 9.99 h
- AUC(0-inf) [1, 7]: 1.37 µg·h/mL
- Cmax [1, 8]: 580 ng/mL
- Tmax [1, 9]: 2 h
- 90 % CI of the GMR of AUC0−24h vs bioequivalent range of 0.8-1.25 ([1]; combination vs alone): outside the acceptable bioequivalent range
- 90 % CI of the GMR of Cmax vs bioequivalent range of 0.8-1.25 ([1]; combination vs alone): outside the acceptable bioequivalent range
- decrease in AUC0-24 h (as nmol h/mL) relative to the increase in artesunate AUC ([1]; in the presence of LPV/r): about 180%
- decrease in AUC0−∞ [1, 10]: ~48.8%
- decrease in Cmax [1, 10]: about 46.6%
- decrease in AUC0−24h [1, 21]: ~58.2%
- increase in t1/2z [1, 21]: 148.5%
- extrapolated AUC from the last blood sampling time to infinity (AUCt−∞) [1]: less than 5%
- inter-individual variability in AUC0−24h [1]: 80.2%
- t1/2z GMR (90 % CI) ([1]; with LPV/r vs alone): 1.89 (1.00, 3.58)
- t1/2z [2]: 0.74 h

Structure (SMILES): C[C@H]1[C@H](OC(=O)CCC(=O)O)O[C@@H]2O[C@@]3(C)CC[C@H]4[C@H](C)CC[C@@H]1[C@@]24OO3 [Artesunate, artesunate]
- Tmax [1, 4]: 1 h
- AUC(0-t) [1, 19]: 0.2 µg·h/mL
- AUC(0-t) [1, 20]: 0.24 µg·h/mL
- Cmax [1, 6]: 140 ng/mL
- Cmax [1, 8]: 110 ng/mL
- Tmax [1, 9]: 1 h
- 90 % CI of the GMR of AUC0−24h vs bioequivalent range of 0.8-1.25 ([1]; combination vs alone): outside the acceptable bioequivalent range
- increase in Cmax and systemic exposure [1, 10]: 45–80%
- inter-individual variability in AUC0−24h [1]: 54.4%

More lines, main results first:

- AUC0–12h [1, 11]: 8.11 (5.71, 10.50) μg h/mL
- Tmax [1, 11]: 4.0 (3.1, 4.8) h
- CL/F [1, 11]: 9.27 (4.74, 13.80) L/h
- Tmax [1, 12]: 4.0 (3.1, 4.8) h
- CL/F [1, 12]: 21.24 (8.71, 33.77) L/h
- Cmax [1, 13]: 1530 ng/mL
- AUC(0-inf) [1, 14]: 10.8 µg·h/mL
- Vd/F [1, 14]: 0.97 L/kg
- half-life [1, 14]: 4.3 h
- AUC(0-t) [1, 15]: 4.49 µg·h/mL
- Cmax ([1]; both sexes, human, oral, LPV/r with 3-day artesunate-mefloquine (Period 3), read-out: Cmax): 680 ng/mL
- AUC(0-inf) [1, 16]: 4.71 µg·h/mL
- Vd/F [1, 16]: 1.75 L/kg
- half-life [1, 16]: 3.7 h
- decrease in AUC0–12h [1, 17]: 44.6%
- decrease in AUC0−∞ [1, 17]: 56.3%
- decrease in Cmax [1, 17]: 54.9%
- increase in CL/F [1, 17]: 129.1%
- increase in Vz/F [1, 17]: 80.4%
- extrapolated AUC from the last blood sampling time to infinity (AUCt−∞) [1]: less than 5%
- inter-individual variability of plasma concentrations [1]: 21.3 to 62.9%
- t1/2z GMR (90 % CI) [1, 18]: 0.87 (0.68, 1.11)
Structure (SMILES): CC(C)c1nc(CN(C)C(=O)N[C@H](C(=O)N[C@@H](Cc2ccccc2)C[C@H](O)[C@H](Cc2ccccc2)NC(=O)OCc2cncs2)C(C)C)cs1 [Ritonavir, ritonavir]
- 90 % CI of the GMR of AUC0−12h vs bioequivalent range of 0.8-1.25 ([1]; combination vs alone): outside the acceptable bioequivalent range
- 90 % CI of the GMR of AUC0−∞ vs bioequivalent range of 0.8-1.25 ([1]; combination vs alone): outside the acceptable bioequivalent range
- 90 % CI of the GMR of Cmax vs bioequivalent range of 0.8-1.25 ([1]; combination vs alone): outside the acceptable bioequivalent range

- AUC0–12h [1, 11]: 103.32 (82.62, 124.01) μg h/mL
- Tmax [1, 11]: 4.0 (3.1, 4.8) h
- Cmax [1, 12]: 9.62 (7.99, 11.24) μg/mL
- Cmax [1, 13]: 12400 ng/mL
- AUC(0-inf) [1, 14]: 229 µg·h/mL
- Vd/F [1, 14]: 0.45 L/kg
- half-life [1, 14]: 9.8 h
- AUC(0-t) [1, 15]: 90.5 µg·h/mL
- AUC(0-inf) [1, 16]: 130 µg·h/mL
- Vd/F [1, 16]: 0.53 L/kg
- half-life [1, 16]: 6.6 h
- decrease in Cmax [1, 17]: 22% and 22.1%
- increase in CL/F [1, 17]: 75.4%
- extrapolated AUC from the last blood sampling time to infinity (AUCt−∞) [1]: less than 5%
- inter-individual variability of plasma concentrations [1]: 50.6 to 127.6%
- t1/2z GMR (90 % CI) [1, 18]: 0.71 (0.45, 1.13)
Structure (SMILES): Cc1cccc(C)c1OCC(=O)N[C@@H](Cc1ccccc1)[C@@H](O)C[C@H](Cc1ccccc1)NC(=O)[C@H](C(C)C)N1CCCNC1=O [Lopinavir, lopinavir]
- 90 % CI of the GMR of Cmax vs bioequivalent range of 0.8-1.25 ([1]; combination vs alone): outside the acceptable bioequivalent range
